Measurements taken from patent US6544996B2, “1-phenyl-4-(1-[2-aryl]cyclopropyl) methylpiperazines: dopamine receptor ligands” (Neurogen Corporation, priority 1999, dated 2003).

Tests used:
[1] = molecular target: T1, recombinantly produced D2 receptors from human (COS cells) (Homo sapiens, UniProt P14416); experiment: biochemical; format: binding; settings: COS cell pellets, 0.5 nM 3H-YM 09151-2
T1 construct: expressed in transfected cells; host or cells: COS cells
Method: (§1) Pellets of COS cells containing recombinantly produced D2 or D4 receptors from human are used for the assays. The sample is homogenized in 100 volumes (w/vol) of 0.05 M Tris HCl buffer at 4° C. and pH 7.4. The sample is then centrifuged at 30,000×g and resuspended and rehomogenized. The sample is then centrifuged as described and the final tissue sample is frozen until use. The tissue is resuspended […] (wt/vol) in 0.05 M Tris HCl buffer containing 100 mM NaCl.

[2] = molecular target: T2, recombinantly produced D4 receptors from human (COS cells) (Homo sapiens, UniProt P21917); experiment: Determination of D4 receptor binding activity (3H-YM 09151-2 displacement)
T2 construct: expressed in transfected cells; host or cells: COS cells
T2 sequence (P21917 1-419): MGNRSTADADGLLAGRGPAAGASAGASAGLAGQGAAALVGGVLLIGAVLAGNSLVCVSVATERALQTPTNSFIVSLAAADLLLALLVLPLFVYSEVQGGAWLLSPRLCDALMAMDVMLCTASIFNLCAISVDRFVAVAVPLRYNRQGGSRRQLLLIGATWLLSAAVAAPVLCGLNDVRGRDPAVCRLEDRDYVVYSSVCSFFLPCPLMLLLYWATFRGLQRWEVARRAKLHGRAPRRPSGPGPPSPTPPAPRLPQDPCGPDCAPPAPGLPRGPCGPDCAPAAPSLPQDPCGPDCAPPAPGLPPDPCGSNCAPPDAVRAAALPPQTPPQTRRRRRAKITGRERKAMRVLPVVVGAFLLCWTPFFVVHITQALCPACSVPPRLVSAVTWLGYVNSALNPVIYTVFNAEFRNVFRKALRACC
Method: as §1

T1 sequence (P14416 whole entry): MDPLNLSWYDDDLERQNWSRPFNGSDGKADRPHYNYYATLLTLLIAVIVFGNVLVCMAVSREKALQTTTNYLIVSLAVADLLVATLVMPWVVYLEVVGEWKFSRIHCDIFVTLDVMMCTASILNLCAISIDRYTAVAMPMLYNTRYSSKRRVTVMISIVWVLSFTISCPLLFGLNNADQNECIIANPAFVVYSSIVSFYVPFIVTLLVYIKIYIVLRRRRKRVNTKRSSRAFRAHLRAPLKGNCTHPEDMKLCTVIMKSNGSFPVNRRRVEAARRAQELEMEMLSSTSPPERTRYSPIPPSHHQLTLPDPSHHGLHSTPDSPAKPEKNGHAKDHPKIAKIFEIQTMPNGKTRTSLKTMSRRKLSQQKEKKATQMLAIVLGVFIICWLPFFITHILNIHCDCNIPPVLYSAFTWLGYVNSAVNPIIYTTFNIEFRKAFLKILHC

SMILES	melting point	Ki [1]	Ki [2]
Br.Cc1cc(Br)ccc1N1CCN(C[C@@H]2C[C@H]2c2ccccc2)CC1 (relative stereo)	182 to 183 °C	–	–
Br.Cc1cc([N+](=O)[O-])ccc1N1CCN(C[C@@H]2C[C@H]2c2ccccc2)CC1 (relative stereo)	197 to 198 °C	–	–
Br.Cc1cc(N)ccc1N1CCN(C[C@@H]2C[C@H]2c2ccccc2)CC1 (relative stereo)	284 to 285 °C	–	–
Clc1ccc([C@H]2C[C@@H]2CN2CCN(c3ccc(Cl)cc3)CC2)cc1 (relative stereo) [Compound 3, 1-(4-chlorophenyl)-4-(trans-2-[4-chlorophenyl]cyclopropyl)methylpiperazine]	–	523 nM	8 nM
